According to the supplement of paper PMC10307832:

Legend:
Assay in all cases: relative viability (nuclei count vs DMSO), 5 days (fraction); higher = more cells survive
NCI-H1944 = test system: NCI-H1944
Summary of the method: (§1)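 Each reported value is a median over duplicate plates. It expresses relative viability: treated-well nuclei count divided by vehicle-well nuclei count. Lung cancer cell lines in 1536-well plates were dosed by pin tool a day after seeding, alone with one drug or with a fixed anchor-drug dose plus five library-drug doses (not always all listed) in √10 steps, and nuclei were counted after 5 days.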

SK-LU-1 = test system: SK-LU-1
Summary of the method: as §1

NCI-H838 = test system: NCI-H838
Summary of the method: as §1

NCI-H1993 = test system: NCI-H1993
Summary of the method: as §1

HCC-366 = test system: HCC-366
Summary of the method: as §1

HCC-78 = test system: HCC-78
Summary of the method: as §1

NCI-H1793 = test system: NCI-H1793
Summary of the method: as §1

NCI-H2126 = test system: NCI-H2126
Summary of the method: as §1

ChaGo-K-1 = test system: ChaGo-K-1
Summary of the method: as §1

NCI-H2023 = test system: NCI-H2023
Summary of the method: as §1

NCI-H358 = test system: NCI-H358
Summary of the method: as §1

HARA = test system: HARA
Summary of the method: as §1

LC-2-ad = test system: LC-2-ad
Summary of the method: as §1

NCI-H23 = test system: NCI-H23
Summary of the method: as §1

HOP-62 = test system: HOP-62
Summary of the method: as §1

NCI-H1395 = test system: NCI-H1395
Summary of the method: as §1

COR-L23 = test system: COR-L23
Summary of the method: as §1

ABC-1 = test system: ABC-1
Summary of the method: as §1

NCI-H2405 = test system: NCI-H2405
Summary of the method: as §1

EMC-BAC-2 = test system: EMC-BAC-2
Summary of the method: as §1

HCC-15 = test system: HCC-15
Summary of the method: as §1

## Cc1sc2c(c1C)C(c1ccc(Cl)cc1)=N[C@@H](CC(=O)OC(C)(C)C)c1nnc(C)n1-2 [JQ1] + Nc1ncn([C@H]2C[C@H](O)[C@@H](CO)O2)c(=O)n1 [Decitabine] (partner 2 µM)
NCI-H1944; first compound 0.04 µM
  relative viability: 0.438
NCI-H1944; first compound 0.1265 µM
  relative viability: 0.405
NCI-H1944; first compound 0.4 µM
  relative viability: 0.409
NCI-H1944; first compound 1.265 µM
  relative viability: 0.335
NCI-H1944; first compound 4 µM
  relative viability: 0.313
SK-LU-1; first compound 0.04 µM
  relative viability: 0.614
SK-LU-1; first compound 0.1265 µM
  relative viability: 0.519
SK-LU-1; first compound 0.4 µM
  relative viability: 0.416
SK-LU-1; first compound 1.265 µM
  relative viability: 0.308
SK-LU-1; first compound 4 µM
  relative viability: 0.213
NCI-H838; first compound 0.04 µM
  relative viability: 0.458
NCI-H838; first compound 0.1265 µM
  relative viability: 0.371
NCI-H838; first compound 0.4 µM
  relative viability: 0.347
NCI-H838; first compound 1.265 µM
  relative viability: 0.282
NCI-H838; first compound 4 µM
  relative viability: 0.235
NCI-H1993; first compound 0.04 µM
  relative viability: 0.586
NCI-H1993; first compound 0.1265 µM
  relative viability: 0.636
NCI-H1993; first compound 0.4 µM
  relative viability: 0.553
NCI-H1993; first compound 1.265 µM
  relative viability: 0.538
NCI-H1993; first compound 4 µM
  relative viability: 0.475
HCC-366; first compound 0.04 µM
  relative viability: 0.309
HCC-366; first compound 0.4 µM
  relative viability: 0.35
HCC-366; first compound 1.265 µM
  relative viability: 0.36
HCC-366; first compound 4 µM
  relative viability: 0.293
HCC-78; first compound 0.04 µM
  relative viability: 0.604
HCC-78; first compound 0.1265 µM
  relative viability: 0.529
HCC-78; first compound 0.4 µM
  relative viability: 0.691
HCC-78; first compound 1.265 µM
  relative viability: 0.563
HCC-78; first compound 4 µM
  relative viability: 0.588
NCI-H1793; first compound 0.04 µM
  relative viability: 0.557
NCI-H1793; first compound 0.1265 µM
  relative viability: 0.433
NCI-H1793; first compound 0.4 µM
  relative viability: 0.468
NCI-H1793; first compound 1.265 µM
  relative viability: 0.418
NCI-H1793; first compound 4 µM
  relative viability: 0.484
NCI-H2126; first compound 0.04 µM
  relative viability: 0.591
NCI-H2126; first compound 0.1265 µM
  relative viability: 0.584
NCI-H2126; first compound 0.4 µM
  relative viability: 0.561
NCI-H2126; first compound 1.265 µM
  relative viability: 0.411
NCI-H2126; first compound 4 µM
  relative viability: 0.428
ChaGo-K-1; first compound 0.04 µM
  relative viability: 0.552
ChaGo-K-1; first compound 0.1265 µM
  relative viability: 0.472
ChaGo-K-1; first compound 0.4 µM
  relative viability: 0.539
ChaGo-K-1; first compound 1.265 µM
  relative viability: 0.392
ChaGo-K-1; first compound 4 µM
  relative viability: 0.36
NCI-H2023; first compound 0.04 µM
  relative viability: 0.233
NCI-H2023; first compound 0.1265 µM
  relative viability: 0.228
NCI-H2023; first compound 0.4 µM
  relative viability: 0.198
NCI-H2023; first compound 1.265 µM
  relative viability: 0.14
NCI-H2023; first compound 4 µM
  relative viability: 0.13
NCI-H358; first compound 0.04 µM
  relative viability: 0.212
NCI-H358; first compound 0.1265 µM
  relative viability: 0.227
NCI-H358; first compound 0.4 µM
  relative viability: 0.235
NCI-H358; first compound 1.265 µM
  relative viability: 0.188
NCI-H358; first compound 4 µM
  relative viability: 0.206
HARA; first compound 0.04 µM
  relative viability: 0.617
HARA; first compound 0.1265 µM
  relative viability: 0.49
HARA; first compound 0.4 µM
  relative viability: 0.457
HARA; first compound 1.265 µM
  relative viability: 0.385
HARA; first compound 4 µM
  relative viability: 0.249
LC-2-ad; first compound 0.04 µM
  relative viability: 0.754
LC-2-ad; first compound 0.1265 µM
  relative viability: 0.621
LC-2-ad; first compound 0.4 µM
  relative viability: 0.708
LC-2-ad; first compound 1.265 µM
  relative viability: 0.574
LC-2-ad; first compound 4 µM
  relative viability: 0.3
NCI-H23; first compound 0.04 µM
  relative viability: 0.323
NCI-H23; first compound 0.1265 µM
  relative viability: 0.3
NCI-H23; first compound 0.4 µM
  relative viability: 0.303
NCI-H23; first compound 1.265 µM
  relative viability: 0.244
NCI-H23; first compound 4 µM
  relative viability: 0.211
HOP-62; first compound 0.04 µM
  relative viability: 0.238
HOP-62; first compound 0.1265 µM
  relative viability: 0.19
HOP-62; first compound 0.4 µM
  relative viability: 0.201
HOP-62; first compound 1.265 µM
  relative viability: 0.156
HOP-62; first compound 4 µM
  relative viability: 0.128
NCI-H1395; first compound 0.04 µM
  relative viability: 0.683
NCI-H1395; first compound 0.1265 µM
  relative viability: 0.701
NCI-H1395; first compound 0.4 µM
  relative viability: 0.71
NCI-H1395; first compound 1.265 µM
  relative viability: 0.587
NCI-H1395; first compound 4 µM
  relative viability: 0.457
COR-L23; first compound 0.04 µM
  relative viability: 0.421
COR-L23; first compound 0.1265 µM
  relative viability: 0.351
COR-L23; first compound 0.4 µM
  relative viability: 0.387
COR-L23; first compound 1.265 µM
  relative viability: 0.272
COR-L23; first compound 4 µM
  relative viability: 0.332
ABC-1; first compound 0.04 µM
  relative viability: 1.19
ABC-1; first compound 0.1265 µM
  relative viability: 0.889
ABC-1; first compound 0.4 µM
  relative viability: 0.691
ABC-1; first compound 1.265 µM
  relative viability: 0.837
ABC-1; first compound 4 µM
  relative viability: 0.582
NCI-H2405; first compound 0.04 µM
  relative viability: 0.81
NCI-H2405; first compound 0.4 µM
  relative viability: 0.75
NCI-H2405; first compound 1.265 µM
  relative viability: 0.577
NCI-H2405; first compound 4 µM
  relative viability: 0.471
EMC-BAC-2; first compound 0.04 µM
  relative viability: 0.947
EMC-BAC-2; first compound 0.4 µM
  relative viability: 0.944
EMC-BAC-2; first compound 1.265 µM
  relative viability: 0.726
EMC-BAC-2; first compound 4 µM
  relative viability: 0.605
HCC-15; first compound 0.04 µM
  relative viability: 0.617
HCC-15; first compound 0.1265 µM
  relative viability: 0.491
HCC-15; first compound 0.4 µM
  relative viability: 0.6
HCC-15; first compound 1.265 µM
  relative viability: 0.406
HCC-15; first compound 4 µM
  relative viability: 0.408
